Source: patent publication US8436043B2 (Takeda Pharmaceutical Company Limited, priority 2008, dated 2013)

Molecular target: T1, human glucagon receptor (Homo sapiens, UniProt P47871)
T1 construct: made in house; host or cells: FreeStyle CHO cells, transient transfection with pMSRαneo/hGCGR; membrane fraction (35,000 rpm pellet)
Test: Glucagon binding inhibitory activity ([125I]-glucagon binding to glucagon receptor membrane protein)
Settings: test compound 10 μM; 0.4% DMSO = 0%, non-labeled glucagon 1 μM = 100%; read-out: inhibitory rate (%) at 10 μM
Procedure, shortened: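 Receptor source was a membrane fraction of transiently transfected CHO cells bearing human receptor; 90 min room-temperature binding, filtration harvest, scintillation counting.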

T1 sequence (P47871 26-477): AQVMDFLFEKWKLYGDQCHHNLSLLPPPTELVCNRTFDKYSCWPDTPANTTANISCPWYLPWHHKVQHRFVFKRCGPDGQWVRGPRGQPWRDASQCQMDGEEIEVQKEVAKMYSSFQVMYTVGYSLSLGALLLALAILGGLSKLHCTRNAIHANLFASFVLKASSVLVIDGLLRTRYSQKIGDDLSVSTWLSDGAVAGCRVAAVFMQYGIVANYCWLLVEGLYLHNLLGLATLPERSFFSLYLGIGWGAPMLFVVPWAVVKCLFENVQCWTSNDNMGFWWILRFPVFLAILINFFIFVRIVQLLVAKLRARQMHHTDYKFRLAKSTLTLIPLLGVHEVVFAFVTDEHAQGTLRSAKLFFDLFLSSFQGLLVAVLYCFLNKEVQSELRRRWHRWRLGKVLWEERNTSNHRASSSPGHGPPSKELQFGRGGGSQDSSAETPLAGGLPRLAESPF

Row | inhibition at 10 µM [%] | SMILES
1 | 72 | Cc1c(C(CC(C)C)Nc2ccc(C(=O)N(C)CCC(=O)O)cc2)sc2ccccc12 (centres unmarked) [Example A32, 3-{methyl[(4-{[3-methyl-1-(3-methyl-1-benzothiophen-2-yl)butyl]amino}phenyl)carbonyl]amino}propanoic acid]
2 | 62 | COc1ccc2cc(C(Nc3ccc(C(=O)N(C)CCC(=O)O)cc3)C3CCCCC3)oc2c1 (centres unmarked) [Example A28, 3-{[(4-{[cyclohexyl(6-methoxy-1-benzofuran-2-yl)methyl]amino}phenyl)carbonyl](methyl)amino}propanoic acid]
3 | 79 | Cc1nn(-c2ccc(Cl)cc2)cc1C(Nc1ccc(C(=O)N(C)CCC(=O)O)cc1)C1CCCCC1 (centres unmarked) [Example 20, 3-[{[4-({[1-(4-chlorophenyl)-3-methyl-1H-pyrazol-4-yl](cyclohexyl)methyl}amino)phenyl]carbonyl}(methyl)amino]-propanoic acid]
4 | 62 | Cc1c(C(Nc2ccc(C(=O)N(C)CCC(=O)O)cc2)C2CCCCC2)sc2cnccc12 (centres unmarked) [Example A136, 3-{[(4-{[cyclohexyl(3-methylthieno[2,3-c]pyridin-2-yl)methyl]amino}phenyl)carbonyl](methyl)amino}propanoic acid]
5 | 79 | Cc1c(C(Nc2ccc(C(=O)N(C)CCC(=O)O)cc2)C2CCCCC2)oc2cccc(F)c12 (centres unmarked) [Example A162]
6 | 70 | COc1ccc2oc(C(Nc3ccc(C(=O)N(C)CCC(=O)O)cc3)c3ccccc3)c(C)c2c1 (centres unmarked) [Example A114, 3-{[(4-{[(5-methoxy-3-methyl-1-benzofuran-2-yl)(phenyl)methyl]amino}phenyl)carbonyl](methyl)amino}-propanoic acid]
7 | 63 | COc1ccc(-n2cc(C(Nc3ccc(C(=O)NCCC(=O)O)cc3)C3CCCCC3)c(C(C)C)n2)cc1 (centres unmarked) [Example 52, 3-({[4-({cyclohexyl[1-(4-methoxyphenyl)-3-(1-methylethyl)-1H-pyrazol-4-yl]methyl}amino)phenyl]carbonyl}amino)propanoic acid]
8 | 92 | Cc1c(C(Nc2ccc(C(=O)N(C)CCC(=O)O)cc2)C2CCCCC2)oc2ccc(OC3CCSCC3)cc12 (centres unmarked) [Example A160, 3-[{[4-({cyclohexyl[3-methyl-5-(tetrahydro-2H-thiopyran-4-yloxy)-1-benzofuran-2-yl]methyl}amino)phenyl]carbonyl}(methyl)amino]propanoic acid]
9 | 72 | CN(CCC(=O)O)C(=O)c1ccc(NC(c2cn(-c3ccccc3)nc2OCc2ccccc2)C2CCCCC2)cc1 (centres unmarked) [Example 67, 3-[{[4-({[3-(benzyloxy)-1-phenyl-1H-pyrazol-4-yl](cyclohexyl)methyl}amino)phenyl]carbonyl}(methyl)amino]-propanoic acid]
10 | 85 | Cc1c(C(Nc2ccc(C(=O)NCCC(=O)O)cc2)C2CCCCC2)sc2ccncc12 (centres unmarked) [Example A138, 3-{[(4-{[cyclohexyl(3-methylthieno[3,2-c]pyridin-2-yl)methyl]amino}phenyl)carbonyl]amino}propanoic acid]
11 | 75 | CCCc1nn(-c2ccc(C(F)(F)F)cn2)cc1C(Nc1ccc(C(=O)N(C)CCC(=O)O)cc1)C1CCCCC1 (centres unmarked) [Example 6, 3-[({4-[(cyclohexyl{3-propyl-1-[5-(trifluoromethyl)pyridin-2-yl]-1H-pyrazol-4-yl}methyl)amino]phenyl}carbonyl)(methyl)amino]propanoic acid]
12 | 69 | COc1ccc(-n2cc(C(CC(C)C)Nc3ccc(C(=O)NCCC(=O)O)cc3)c(C3CC3)n2)cc1 (centres unmarked) [Example 44, 3-({[4-({1-[3-cyclopropyl-1-(4-methoxyphenyl)-1H-pyrazol-4-yl]-3-methylbutyl}amino)phenyl]carbonyl}amino)propanoic acid]
13 | 73 | Cc1c(C(CC(C)C)Nc2ccc(C(=O)NCCC(=O)O)cn2)sc2ccccc12 (centres unmarked) [Example A36, 3-{[(6-{[3-methyl-1-(3-methyl-1-benzothiophen-2-yl)butyl]amino}pyridin-3-yl)carbonyl]amino}propanoic acid]
14 | 85 | Cc1c(C(C)Nc2ccc(C(=O)NCCC(=O)O)cc2)oc2ccc(OCc3ccccc3)cc12 (centres unmarked) [Example A165, 3-({[4-({1-[5-(benzyloxy)-3-methyl-1-benzofuran-2-yl]ethyl}amino)phenyl]carbonyl}amino)propanoic acid]
15 | 90 | Cc1c(C(Nc2ccc(C(=O)N(C)CCC(=O)O)cc2)C2CCCCC2)oc2ccc(N3CCSCC3)cc12 (centres unmarked) [Example A187, 3-[{[4-({cyclohexyl[3-methyl-5-(thiomorpholin-4-yl)-1-benzofuran-2-yl]methyl}amino)phenyl]carbonyl}(methyl)amino]propanoic acid]
16 | 82 | CCC(CC)C(Nc1ccc(C(=O)NCCC(=O)O)cc1)c1sc2ccccc2c1C (centres unmarked) [Example A134, 3-{[(4-{[2-ethyl-1-(3-methyl-1-benzothiophene-2-yl)butyl]amino}phenyl)carbonyl]amino}propanoic acid]
17 | 85 | Cc1c(C(Nc2ccc(C(=O)N(C)CCC(=O)O)cc2)C2CCCCC2)oc2c(F)cc(F)cc12 (centres unmarked) [Example A164, 3-{[(4-{[cyclohexyl(5,7-difluoro-3-methyl-1-benzofuran-2-yl)methyl]amino}phenyl)carbonyl](methyl)amino}propanoic acid]
18 | 90 | Cc1c(C(Nc2ccc(C(=O)NCCC(=O)O)nc2)C2CCCCC2)oc2ccc(F)cc12 (centres unmarked) [Example A55, 3-{[(5-{[cyclohexyl(5-fluoro-3-methyl-1-benzofuran-2-yl)methyl]amino}pyridin-2-yl)carbonyl]amino}propanoic acid]
19 | 69 | CCCCCCC(Nc1ccc(C(=O)NCCC(=O)O)cc1)c1cc2cc(Cl)ccc2n1-c1cccc(C(F)(F)F)c1 (centres unmarked) [Example A106, 3-[({4-[(1-{5-chloro-1-[3-(trifluoromethyl)phenyl]-1H-indol-2-yl}heptyl)amino]phenyl}carbonyl)amino]propanoic acid]
20 | 71 | COc1ccc2cc(C(Nc3ccc(C(=O)NCCC(=O)O)cc3)C3CCCCC3)oc2c1 (centres unmarked) [Example A35, 3-{[(4-{[cyclohexyl(6-methoxy-1-benzofuran-2-yl)methyl]amino}phenyl)carbonyl]amino}propanoic acid]
21 | 66 | COCc1c(C(Nc2ccc(C(=O)N(C)CCC(=O)O)cc2)C2CCCCC2)oc2ccc(F)cc12 (centres unmarked) [Example A48, 3-[{[4-({cyclohexyl[5-fluoro-3-(methoxymethyl)-1-benzofuran-2-yl]methyl}amino)phenyl]carbonyl}(methyl)amino]propanoic acid]
22 | 78 | Cc1c(C(Nc2ccc(C(=O)NCCC(=O)O)cc2)C2CCCCC2)oc2ccc(C#N)cc12 (centres unmarked) [Example A98, 3-{[(4-{[(5-cyano-3-methyl-1-benzofuran-2-yl)(cyclohexyl)methyl]amino}phenyl)carbonyl]amino}propanoic acid]
23 | 74 | O=C(O)CCNC(=O)c1ccc(NC(c2cn(-c3ccccc3)nc2OCc2ccccc2)C2CCCCC2)cc1 (centres unmarked) [Example 66, 3-({[4-({[3-(benzyloxy)-1-phenyl-1H-pyrazol-4-yl](cyclohexyl)methyl}amino)phenyl]carbonyl}amino)propanoic acid]
